The values below come from US10851053B2, “Chemical compounds” (GlaxoSmithKline Intellectual Property Development Limited, priority 2016, dated 2020).

“And” between values parts separate entries of the source, which are not always exact repeats. Equal values may be shown once. Where a name gives a salt, the structure may show the parent alone.

The subject of one assay is ATF4 translation (ATF4 pathway), SH-SY5Y-ATF4-NanoLuc cells. In words: ATF4 cell based assay (ATF4 5'-UTR NanoLuc luciferase reporter, Thapsigargin induced cellular stress). Particulars: SH-SY5Y-ATF4-NanoLuc cells challenged with Thapsigargin for 14-18 hours; average of two or more experimental runs; hydrochloride; read-out: average ATF4 pathway inhibitory activity (IC50). The source says:
The ATF4 reporter assay measures the effect of Thapsigargin induced cellular stress on ATF4 expression. For this reporter assay, a stable cell line was created by transfecting SH-SY5Y cells with a plasmid containing the NanoLuc® luciferase gene fused to the 5′-UTR of ATF4, under the control of the CMV promoter. The ATF4 5′-UTR contains two open reading frames which mediate the cellular stress-dependent translation of the reporter gene. Clones stably expressing the reporter construct were isolated and selected based on the luminescence response to thapsigargin and inhibition of this signal by test compounds. Briefly, SH-SY5Y-ATF4-NanoLuc cells were challenged with Thapsigargin for 14-18 hours to determine the stress effect with or without test compounds.
Cells were propagated in growth media consisting of 90% DMEM F12 (InVitrogen #11320-033), 10% Fetal Bovine Serum (Gibco #10438-026), 5 mM Glutamax (Gibco #35050-061), 5 mM Hepes, (Gibco #15630-080), and 0.5 mg/ml Geneticin (Gibco #10131-027). Cells were prepared for the assay by removing all media from cells, washing the plated cells with phosphate buffered saline, and detached by adding a solution comprised of 10% Tryple express solution (InVitrogen12604-021) and 90% enzyme-free cell dissociation buffer HANKS base (Gibco 13150-016). The trypsin was deactivated by adding assay media comprised of 90% phenol-red free DMEM F12 (InVitrogen, 11039), 10% Fetal Bovine Serum (Gibco #10438-026), (5 mM Glutamax (Gibco #35050-061), 5 mM Hepes, (Gibco #15630-080), and 0.5 mg/ml Geneticin (Gibco #10131-027). Suspended cells were spun down at 300 g for 5 min, the supernatant was removed and the cell pellet was suspended in warm media (30-37° C.) comprised as above at (1e6 cell/ml).
Assay plates were prepared by adding 250 nL of compound stock solution in 100% DMSO to each well, followed by dispensing 20 microliters/well cell suspension to deliver 15-20 k cell/well. Cells were incubated for 1 hour at 37° C. Then, 5 μL of 1.5 μM or 1 μM of Thapsigargin (final concentration: 200-300 nM) was added to each well of cells. Assay plates containing cells were incubated for 14-18 hours at 37° C.
The measurement of luciferase produced by the ATF4 constructs was measured as follows. Aliquots of the Nano-Glo reagent (Nano-Glo® Luciferase Assay Substrate, Promega, N113, Nano-Glo® Luciferase Assay Buffer, Promega, N112 (parts of Nano-Glo® Luciferase Assay System, N1150) were brought to room temperature, the substrate and buffer were mixed according to manufacturer's instructions. The cell plates were equilibrated to room temperature. 25 microliters/well of the mixed Nano-Glo reagent were dispensed into assay wells and pulse spun to settle contents and the plate was sealed with film. The plates were incubated at room temperature for 1 hour before detecting luminescence on an Envision plate reader.
Compounds of the invention are tested for activity against ATF4 translation in the above assay.
On to `O=C(COc1ccc(Cl)nc1)N[C@H]1[C@@H]2CN(CCCOc3ccc(Cl)cc3)C[C@@H]21` [Example 71, N-((1R,5S,6s)-3-(3-(4-chlorophenoxy)propyl)-3-azabicyclo[3.1.0]hexan-6-yl)-2-((6-chloropyridin-3-yl)oxy)acetamide hydrochloride], for which the half-maximal inhibitory concentration (IC50) turned out to be 136 nM.

The assay is the same for the next values; noted with them: SH-SY5Y-ATF4-NanoLuc cells challenged with Thapsigargin for 14-18 hours; average of two or more experimental runs; read-out: average ATF4 pathway inhibitory activity (IC50).
For the compound `O=C(COc1ccc(Cl)cc1)NCC1CCN(CCCOc2ccc(Cl)cc2Cl)C1` (stereo not drawn) [Example 66, 2-(4-chlorophenoxy)-N-((1-(3-(2,4-dichlorophenoxy)propyl)pyrrolidin-3-yl)methyl)acetamide], the IC50 was 101 to 1000 nM.

In the case of `Cc1cc(Cl)ccc1OCCCN1CCC(CNC(=O)COc2ccc(Cl)cc2)C1` (stereo not drawn) [Example 67, N-((1-(3-(4-chloro-2-methylphenoxy)propyl)pyrrolidin-3-yl)methyl)-2-(4-chlorophenoxy)acetamide], the IC50 lay within 101 to 1000 nM.

As to `O=C(COc1ccc(Cl)cc1)NCC1CCN(CCCOc2ccc(Cl)cn2)C1` (stereo not drawn) [Example 69, 2-(4-chlorophenoxy)-N-((1-(3-((5-chloropyridin-2-yl)oxy)propyl)pyrrolidin-3-yl)methyl)acetamide], the half-inhibitory concentration (IC50) was less than 100 nM.

As for `O=C(COc1ccc(Cl)cc1)NC[C@@H]1CCN(CCCOc2ccc(Cl)cc2)C1` [Example 70, (S)-2-(4-chlorophenoxy)-N-((1-(3-(4-chlorophenoxy)propyl)pyrrolidin-3-yl)methyl)acetamide], the IC50 lay in the range of 101 to 1000 nM.

Regarding `O=C(COc1ccc(Cl)c(C(F)(F)F)c1)NCC1CCN(CCCOc2ccc(Cl)cc2)C1` (stereo not drawn) [Example 72, 2-(4-chloro-3-(trifluoromethyl)phenoxy)-N-((1-(3-(4-chlorophenoxy)propyl)pyrrolidin-3-yl)methyl)acetamide], the IC50 is less than 100 nM.

Take `O=C(COc1ccc(Cl)cc1)NC[C@H]1CCN(CCCOc2ccc(Cl)cc2)C1` [Example 73, (R)-2-(4-chlorophenoxy)-N-((1-(3-(4-chlorophenoxy)propyl)pyrrolidin-3-yl)methyl)acetamide]: the IC50 is less than 100 nM.

With `O=C(COc1ccc(Cl)cc1)NCC1CCN(CCCOc2ccc(Cl)cc2)C1=O` (stereo not drawn) [Example 75, 2-(4-chlorophenoxy)-N-((1-(3-(4-chlorophenoxy)propyl)-2-oxopyrrolidin-3-yl)methyl)acetamide], the IC50 was in the range of 101 to 1000 nM.

Consider `O=C(COc1ccc(Cl)cc1)N[C@H]1[C@@H]2CN(CC(O)COc3ccc(Cl)cc3)C[C@@H]21` (stereo partly drawn) [Example 76, 2-(4-chlorophenoxy)-N-((1R,5S,6s)-3-(3-(4-chlorophenoxy)-2-hydroxypropyl)-3-azabicyclo[3.1.0]hexan-6-yl)acetamide], for which the IC50 was less than 100 nM.

For `O=C(COc1ccc(Cl)cc1)NCC1CCN(CC(O)COc2ccc(Cl)cc2)C1` (stereo not drawn) [Example 77, 2-(4-chlorophenoxy)-N-((1-(3-(4-chlorophenoxy)-2-hydroxypropyl)pyrrolidin-3-yl)methyl)acetamide], the IC50 is < 100 nM and 65 nM.

With `O=C(COc1ccc(Cl)cc1)N[C@H]1[C@@H]2CN(CC(F)COc3ccc(Cl)cc3)C[C@@H]21` (stereo partly drawn) [Example 78, 2-(4-chlorophenoxy)-N-((1R,5S,6s)-3-(3-(4-chlorophenoxy)-2-fluoropropyl)-3-azabicyclo[3.1.0]hexan-6-yl)acetamide], the IC50 is less than 100 nM.

With `CN(Cc1ccc(Cl)cc1)C(=O)N1CCC(CNC(=O)COc2ccc(Cl)cc2)C1` (stereo not drawn) [Example 79, N-(4-chlorobenzyl)-3-((2-(4-chlorophenoxy)acetamido)methyl)-N-methylpyrrolidine-1-carboxamide], the IC50 is less than 100 nM.

For the compound `O=C(COc1ccc(Cl)cc1)NCC1CN(CCCOc2ccc(Cl)cc2)CC1O` (stereo not drawn) [Example 80, 2-(4-chlorophenoxy)-N-((1-(3-(4-chlorophenoxy)propyl)-4-hydroxypyrrolidin-3-yl)methyl)acetamide], the IC50 is less than 100 nM.

With `O=C(COc1ccc(Cl)cc1)NCC1CC(=O)N(CCCOc2ccc(Cl)cc2)C1` (stereo not drawn) [Example 81, 2-(4-chlorophenoxy)-N-((1-(3-(4-chlorophenoxy)propyl)-5-oxopyrrolidin-3-yl)methyl)acetamide], the IC50 lay in the range of 101 to 1000 nM.

On to `O=C(COc1ccc(Cl)cc1)NC1[C@H]2CN(C(CCOc3ccc(Cl)cc3)C(=O)O)C[C@@H]12` (stereo partly drawn) [Example 82, 4-(4-chlorophenoxy)-2-((1R,5S)-6-(2-(4-chlorophenoxy)acetamido)-3-azabicyclo[3.1.0]hexan-3-yl)butanoic acid hydrochloride], for which the IC50 was less than 100 nM.
